This is an account of results in US11975009B2, “Use of zinc porphyrin as an antimicrobial” (ZNABLE LLC, priority 2022, dated 2024).

Assay [1] concerns PsA. The experiment in a line: Activity of extant antibiotics together with ZnPor (II). The note with it: pre-treated by ZnPor (II).
The subject of assay [2] is PsA biofilms and planktonic cells. The note with it: cited from earlier work.
Assay [3] relates to pqsA mutant biofilms. Particulars: mutant with little to no eDNA; cited from earlier work.

Take `CN[C@H](CC(C)C)C(=O)N[C@H]1C(=O)N[C@@H](CC(N)=O)C(=O)N[C@H]2C(=O)N[C@H]3C(=O)N[C@H](C(=O)N[C@H](C(=O)O)c4cc(O)cc(O)c4-c4cc3ccc4O)[C@H](O)c3ccc(c(Cl)c3)Oc3cc2cc(c3O[C@@H]2O[C@H](CO)[C@@H](O)[C@H](O)[C@H]2O[C@H]2C[C@](C)(N)[C@H](O)[C@H](C)O2)Oc2ccc(cc2Cl)[C@H]1O` [Vancomycin, reference compound]: the “killing of PsA” value in assay [1] is listed as “kills”.
Regarding `C[n+]1ccc(-c2c3nc(c(-c4cc[n+](C)cc4)c4ccc([nH]4)c(-c4cc[n+](C)cc4)c4nc(c(-c5cc[n+](C)cc5)c5ccc2[nH]5)C=C4)C=C3)cc1.Cc1ccc(S(=O)(=O)[O-])cc1.Cc1ccc(S(=O)(=O)[O-])cc1.Cc1ccc(S(=O)(=O)[O-])cc1.Cc1ccc(S(=O)(=O)[O-])cc1` [TMP, 5,10,15,20-tetrakis(1-methylpyridino)-21H,23H-porphine, tetra-p-tosylate salt], in assay [2] (absence of photoactivation), the “toxicity to bacterial cells” value is listed as “little to no toxicity”. The “effect on antibiotic sensitivity of biofilm-associated cells” value in assay [2] (light activation not required) is “sensitive to tobramycin, gentamycin, and vancomycin”. Further, the “efficacy against PsA biofilms and planktonic cells” value in assay [2] (when photoactivated) is “highly effective”. The “effect on PsA biofilms” value in assay [2] (without light activation) was “disruption and detachment from the substrata”. The “effect on pqsA mutant biofilms” value in assay [3] is “no effect”.
